Measurements: US20060122153A1, “Antineoplastic ether lipid compounds with modifications at the sn-2 carbon” (priority 2003, published 2006)
Where “and” joins values, the source holds several entries; their conditions need not be identical. Equal entries are not always repeated.

Tests used:
NIH-3T3 = experiment: In vitro growth inhibition (GI50), SRB assay, normal fibroblast; assay type: cell-based, mouse; conditions: NIH-3T3 normal murine fibroblast cell line, 3 days
Text: The following cell lines were selected from the cell bank for screening and GI50 studies: MCF-7: human breast tumor, MCF-7/ADR: MCF-7 adriamycin resistant subline, HT-29: human colon carcinoma, A-549: human non-small cell lung cancer, NIH-3T3: mouse Swiss embryo fibroblast and WI-38: human lung fibroblast, SKMEL-28: human melanoma, Lewis Lung: mouse lung carcinoma, DU-145: prostate carcinoma, B16F10: mouse melanoma, L1210: murine lymphocytic leukemia, P-388: murine leukemia, U-937: human histolytic lymphoma. Except HT-29, WI-38, NIH-3T3 and Lewis Lung which were obtained from the American Type Culture Collection (Rockville, Md.) all the other cell lines were obtained from National Cancer Institute—Frederick Research Facility (Frederick, Md.). All the cell lines were grown in RPMI-1640 medium containing 10% fetal bovine serum (FBS) except WI-38 and DU-145 which were grown in EMEM+10% FBS at 37° C., 5% CO2 and 100% humidity and NIH-3T3, Lewis Lung, B16F10 and L1210 which were grown in DMEM containing 10% FBS (10% HS for L1210). […]
The test compounds were made in-house and the compounds were dissolved PBS or saline at a stock concentration of approximately 20 mM, which is 400 times the desired final maximum test concentration. […] After 3 days of incubation, cell growth was determined.
The SRB assay was performed as described by Monks, A., Scudiero, D., Skehan, P., Shoemaker, R., Paull, K., Vistica, D., Hose, C., Langley, J., Cronise, P., and Vaigro-Wolff, A. Feasibility of a high-flux anticancer drug screen using a diverse panel of cultured human tumo-r cell lines. […] Bound SRB was solubilized with Tris buffer (10 mM), and the ODs were read using an automated plate reader (Bio-Rad, Model 3550-UV) at 490 nm. Background values were subtracted from the test data, and the data was calculated as a % of control. […] Percentage growth was calculated as described by, Peters, A. C., Ahmad, I., Janoff, A. S., Pushkareva, M. Y., and Mayhew, E. Growth Inhibitory effects of liposome-associated 1-o-octadecyl-2-o-methyl-sn-glycero-3-phosphocholine. […]

NCI-H23 = experiment: NCI growth inhibition screen, non-small cell lung panel; assay type: cell-based, human; set-up: key: = means equivalent activity; + means that it appears to be significantly better (i.e., by ˜2x); < means it appears to be less active than ET18OCH3 (˜2x); a combination like =/+ or </+ means that activity is dependent upon the isomer; a combination like =/+ or </+ means that activity is dependent upon the isomer; conditions: NCI-H23, NS cell lung; from GI50s
Protocol: (§1) Candidates deemed suitable for in vivo testing were then synthesized in large scale quantities and some of this material was sent to the NCI's Developmental Therapeutics Program for a battery of growth inhibitory studies against various human tumor cell lines (60 cell lines, 9 different panels). The remainder of the material was used to assess in vivo efficacy using murine tumor models. Additionally, studies were conducted on the lead candidates to discern mechanism of action with particular emphasis on these agents apoptotic ability as measured by caspase 3 activity. The details (materials and methods) for these various assays are described further in the following discussion.
(§2) Ten compounds were also sent to NCI's Drug Discovery Program for screening against numerous human tumor cell lines (9 panels total: renal ovarian, colon, CNS, non-small cell lung, leukemia, breast, melanoma, and prostate). The data are shown in FIGS. 2a-i which also include data regarding D- and L-ET-18-OCH3 (listed as L-EL and D-EL in the figures). Upon examining the data, one is struck by how 1R and 1a′S standout in comparison to the other compounds, especially for the renal, ovarian, colon, and CNS panels.

NCI-H460 = experiment: as above; assay type: cell-based, human; set-up: key: = means equivalent activity; + means that it appears to be significantly better (i.e., by ˜2x); < means it appears to be less active than ET18OCH3 (˜2x); a combination like =/+ or </+ means that activity is dependent upon the isomer; a combination like =/+ or </+ means that activity is dependent upon the isomer; conditions: NCI-H460, NS cell lung; from GI50s
Protocol: as §1, §2

HOP-92 = experiment: as above; assay type: cell-based, human; set-up: key: = means equivalent activity; + means that it appears to be significantly better (i.e., by ˜2x); < means it appears to be less active than ET18OCH3 (˜2x); a combination like =/+ or </+ means that activity is dependent upon the isomer; a combination like =/+ or </+ means that activity is dependent upon the isomer; conditions: HOP-92, NS cell lung; from GI50s
Protocol: as §1, §2

EKVX = experiment: as above; assay type: cell-based, human; set-up: key: = means equivalent activity; + means that it appears to be significantly better (i.e., by ˜2x); < means it appears to be less active than ET18OCH3 (˜2x); a combination like =/+ or </+ means that activity is dependent upon the isomer; a combination like =/+ or </+ means that activity is dependent upon the isomer; conditions: NS cell lung, from GI50s
Protocol: as §1, §2

A-549/ATCC = experiment: as above; assay type: cell-based, human; set-up: key: = means equivalent activity; + means that it appears to be significantly better (i.e., by ˜2x); < means it appears to be less active than ET18OCH3 (˜2x); a combination like =/+ or </+ means that activity is dependent upon the isomer; a combination like =/+ or </+ means that activity is dependent upon the isomer; conditions: NS cell lung, from GI50s
Protocol: as §1, §2

## CCCCCCCCCCCCCCCCCCOC[C@@H](COP(=O)([O-])OCC[N+](C)(C)C)OS(C)(=O)=O [1a′S]
NIH-3T3
  GI50: 30.3 µM and 35.2 µM
NCI-H23
  Performance as compared to ET-18-O—CH3: 0
NCI-H460
  Performance as compared to ET-18-O—CH3: 0
HOP-92
  Performance as compared to ET-18-O—CH3: 0
EKVX
  Performance as compared to ET-18-O—CH3: 0
A-549/ATCC
  Performance as compared to ET-18-O—CH3: 0

## CCCCCCCCCCCCCCCCCCOCC(COP(=O)([O-])OCC[N+](C)(C)C)OS(C)(=O)=O (stereo not drawn) [Compound 1aR]
NCI-H23
  Performance as compared to ET-18-O—CH3: =
NCI-H460
  Performance as compared to ET-18-O—CH3: =
HOP-92
  Performance as compared to ET-18-O—CH3: =
EKVX
  Performance as compared to ET-18-O—CH3: =
A-549/ATCC
  Performance as compared to ET-18-O—CH3: =

## CCCCCCCCCCCCCCCCCCOCC(COP(=O)([O-])OCC[N+](C)(C)C)OC [D-ET18OCH3, 1-O-octadecyl-2-O-methyl-glycerophosphocholine, reference compound]
NIH-3T3
  GI50: 41.4 µM
